Drawing on publication PMC2553423 (Glycobiology, 2008), this text covers Km and kcat for two molecules.

In one data set the target is EngSP (Streptococcus pneumoniae, UniProt Q2MGH6). The data set can be described thus: steady-state kinetics, pNP release at […] nm. The data set is classed as biochemical. The conditions noted are these: 50 mM sodium phosphate pH 7.5, 5 mM MgCl2, 25°C.
A further data set addresses EngCP (Clostridium perfringens, UniProt A0A0H2YQ40). The data set is classed as biochemical.
The next data set has as its system EngAL. Description: steady-state kinetics, pNP release at […] nm. The data set is classed as biochemical, Alcaligenes sp. The following applies: 50 mM sodium phosphate pH 7.5, 5 mM MgCl2, 25°C.
The target in the next data set is T1, EngPA (Cutibacterium acnes, UniProt A0ABM7H013).
T1 sequence (A0ABM7H013 1-1321): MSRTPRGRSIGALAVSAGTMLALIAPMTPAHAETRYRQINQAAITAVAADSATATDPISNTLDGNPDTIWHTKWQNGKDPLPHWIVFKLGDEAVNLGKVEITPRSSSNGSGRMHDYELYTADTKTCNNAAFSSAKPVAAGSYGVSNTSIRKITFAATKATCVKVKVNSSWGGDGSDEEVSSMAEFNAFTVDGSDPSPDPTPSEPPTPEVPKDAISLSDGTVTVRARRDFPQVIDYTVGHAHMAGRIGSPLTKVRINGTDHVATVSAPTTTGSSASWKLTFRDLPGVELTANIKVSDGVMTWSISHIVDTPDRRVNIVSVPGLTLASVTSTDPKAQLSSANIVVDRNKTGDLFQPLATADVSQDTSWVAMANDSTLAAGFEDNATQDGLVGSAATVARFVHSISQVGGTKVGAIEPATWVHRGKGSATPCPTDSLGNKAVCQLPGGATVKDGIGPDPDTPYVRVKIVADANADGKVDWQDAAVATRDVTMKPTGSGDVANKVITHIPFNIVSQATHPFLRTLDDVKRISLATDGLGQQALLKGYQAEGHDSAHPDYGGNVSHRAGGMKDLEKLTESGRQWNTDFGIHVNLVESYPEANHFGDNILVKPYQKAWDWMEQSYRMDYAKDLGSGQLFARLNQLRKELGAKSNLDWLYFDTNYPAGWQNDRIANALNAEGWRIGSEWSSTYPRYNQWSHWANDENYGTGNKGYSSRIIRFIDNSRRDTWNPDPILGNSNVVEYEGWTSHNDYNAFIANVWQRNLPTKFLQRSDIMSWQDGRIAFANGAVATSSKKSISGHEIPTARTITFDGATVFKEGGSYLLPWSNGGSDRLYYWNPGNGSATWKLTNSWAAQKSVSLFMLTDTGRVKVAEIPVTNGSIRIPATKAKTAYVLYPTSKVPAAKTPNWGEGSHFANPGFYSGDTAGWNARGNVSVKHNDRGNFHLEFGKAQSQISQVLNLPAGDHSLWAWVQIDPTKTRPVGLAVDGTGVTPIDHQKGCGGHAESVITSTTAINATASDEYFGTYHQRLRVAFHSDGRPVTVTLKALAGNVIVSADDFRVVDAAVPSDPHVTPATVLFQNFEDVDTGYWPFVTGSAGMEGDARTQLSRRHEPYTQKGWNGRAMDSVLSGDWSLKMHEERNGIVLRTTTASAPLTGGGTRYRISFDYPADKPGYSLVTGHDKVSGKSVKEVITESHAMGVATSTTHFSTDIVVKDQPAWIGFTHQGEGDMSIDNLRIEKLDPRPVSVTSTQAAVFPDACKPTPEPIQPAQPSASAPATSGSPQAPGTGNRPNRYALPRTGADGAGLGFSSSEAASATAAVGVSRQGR
Description: steady-state kinetics, pNP release at […] nm. The conditions noted are these: 50 mM sodium phosphate pH 7.5, 5 mM MgCl2, 25°C. The data set is classed as biochemical.

A further data set addresses T2, EngEF (Enterococcus faecalis, UniProt Q833X5).
T2 sequence (Q833X5 1-1324): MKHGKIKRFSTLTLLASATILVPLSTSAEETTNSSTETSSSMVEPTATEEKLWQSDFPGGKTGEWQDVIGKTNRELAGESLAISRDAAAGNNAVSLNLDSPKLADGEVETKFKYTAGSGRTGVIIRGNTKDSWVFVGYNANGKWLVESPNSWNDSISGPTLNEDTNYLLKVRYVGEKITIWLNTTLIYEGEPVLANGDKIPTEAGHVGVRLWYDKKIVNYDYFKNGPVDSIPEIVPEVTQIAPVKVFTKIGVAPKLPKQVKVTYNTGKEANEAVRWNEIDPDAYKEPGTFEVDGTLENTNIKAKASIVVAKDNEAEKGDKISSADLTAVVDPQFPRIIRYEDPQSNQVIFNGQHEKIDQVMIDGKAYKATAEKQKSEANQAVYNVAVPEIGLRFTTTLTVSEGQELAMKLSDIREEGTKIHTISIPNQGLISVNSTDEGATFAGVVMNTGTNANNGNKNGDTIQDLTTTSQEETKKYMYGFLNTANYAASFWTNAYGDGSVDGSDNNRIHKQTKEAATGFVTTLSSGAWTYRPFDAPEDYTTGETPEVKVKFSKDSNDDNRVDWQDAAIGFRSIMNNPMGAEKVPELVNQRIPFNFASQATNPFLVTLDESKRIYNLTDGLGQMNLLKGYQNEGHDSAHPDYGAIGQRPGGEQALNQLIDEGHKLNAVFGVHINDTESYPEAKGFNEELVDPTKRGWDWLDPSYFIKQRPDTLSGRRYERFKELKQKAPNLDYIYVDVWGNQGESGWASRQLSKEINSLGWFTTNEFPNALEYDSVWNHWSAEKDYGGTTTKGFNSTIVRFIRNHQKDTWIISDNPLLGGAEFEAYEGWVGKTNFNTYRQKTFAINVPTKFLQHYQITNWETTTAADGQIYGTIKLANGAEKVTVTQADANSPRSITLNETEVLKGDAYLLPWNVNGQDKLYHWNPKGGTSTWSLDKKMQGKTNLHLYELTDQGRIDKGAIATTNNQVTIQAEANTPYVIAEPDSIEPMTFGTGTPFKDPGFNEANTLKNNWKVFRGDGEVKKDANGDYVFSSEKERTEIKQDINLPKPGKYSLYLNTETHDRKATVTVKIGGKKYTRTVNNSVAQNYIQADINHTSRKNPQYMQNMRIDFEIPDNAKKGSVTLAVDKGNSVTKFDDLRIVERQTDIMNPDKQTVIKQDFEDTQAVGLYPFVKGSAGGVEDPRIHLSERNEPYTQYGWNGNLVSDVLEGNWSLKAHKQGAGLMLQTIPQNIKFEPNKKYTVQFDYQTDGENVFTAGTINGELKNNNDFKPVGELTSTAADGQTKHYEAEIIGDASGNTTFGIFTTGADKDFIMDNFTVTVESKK
The data set can be described thus: steady-state kinetics, pNP release at […] nm. The following applies: 50 mM sodium phosphate pH 7.5, 5 mM MgCl2, 25°C.

Substrate in the data set “purified protein”: CC(=O)N[C@H]1[C@H](O[C@H]2[C@@H](O)[C@@H](CO)O[C@H](Oc3ccc([N+](=O)[O-])cc3)[C@@H]2NC(C)=O)O[C@H](CO)[C@@H](O)[C@@H]1O
The data set can be described thus: purified protein. The following applies: 50 mM sodium phosphate pH 7.5, 5 mM MgCl2, 25°C.

The term Km denotes the substrate concentration at which the rate is half of its maximum. As for `CC(=O)N[C@H]1[C@@H](Oc2ccc([N+](=O)[O-])cc2)O[C@H](CO)[C@H](O)[C@@H]1O[C@@H]1O[C@H](CO)[C@H](O)[C@H](O)[C@H]1O` [Galβ1,3GalNAcα1pNP], the Km was 40.4 µM on EngSP; 70.9 µM at EngCP; 33.9 µM in the data set with EngAL; 3.78 µM on EngPA; 47.9 µM on EngEF.

B1: EngEF (Enterococcus faecalis V583) (protein)
chain: T2 sequence (Q833X5 1-1324)
As usually defined, the kcat is the number of substrate molecules converted per active site and unit of time at saturation. With B1, in the data set “purified protein”, the Michaelis constant (Km) is 20.03 µM and the kcat was 9.43 s⁻¹.
